Patent US20070048367A1, “Herbal composition for treating morning sickness” (MOM Enterprises, Inc., priority 2005, published 2007)
Counter-ions that a name gives are not always drawn.

Test system: morning sickness
Experiment: Doctor survey: composition compared with other morning sickness remedies tried during the same pregnancy
Type: in vivo, pregnant patients
Conditions: for Patients' preference, composition versus the named remedy: overall, in words
Source text: Doctors across the United States were each sent four bottles of the composition described herein, and were invited to allow their pregnant patients to try the composition as a remedy for morning sickness. The same doctors were also sent a survey inquiring about the patients'experience with the composition, the other remedies used, and how the composition disclosed herein compared with the other remedies.
The survey also asked about other known morning sickness remedies. […] Some of the other remedies included Reglan® (metochlopramide, commercially available from Robins Co., Richmond, Va.), Emetrol® (dextrose, levulose, phosphoric acid, commercially available from Pfizer, Inc., New York, N.Y.), Mylanta® (calcium carbonate, magnesium hydroxide, commercially available from Johnson & Johnson, Merck Consumer Pharmaceuticals Co., Fort Washington, Pa.), Premesis Rx® (calcium carbonate, vitamin B12, folic acid, vitamin B6, commercially available from KV Pharmaceutical Co., St. Louis, Mo.), Compazine® (prochlorperazine, commercially available from SmithKline Beecham, Philadelphia, Pa.), and meclizine (commercially available under the tradename Antivert® from Pfizer, Inc., New York, N.Y.).
Regardless of whether they tried one or more remedies besides the disclosed composition, each doctor was asked, for each patient: did the composition work 1) better than other products or combinations, 2) better than some, but not as well as others, or 3) not as well as other products or combinations.
Another question in the survey asked the doctors what products each patient took besides the composition, and then whether the composition worked 1) better than other products or combinations, 2) better than some, but not as well as others, or 3) not as well as other products or combinations.

[1] = composition versus the named remedy, the two taken alone or with other remedies
[2] = patients who tried only the named remedy or combination besides the composition
[3] = composition versus the named remedy, the two taken alone or with other remedies, hydrochloride

Row | SMILES | Percent of Patients for whom the Composition Did Not Work as Well [1] | Percent of Patients for whom the Composition worked Better [1] | Patients for whom the composition definitely worked better than the remedy/remedies tried in addition [2] | Patients' preference, composition versus the named remedy | further results
1 | CC(CN1c2ccccc2Sc2ccccc21)N(C)C (stereo not drawn) [Promethazine ®, Promethazine] | 100% | 0% | – | – | –
2 | CN1CCN(CCCN2c3ccccc3Sc3ccc(Cl)cc32)CC1 [Compazine ®, prochlorperazine] | 29% | 43% | better for 3 patients | – | –
3 | CC(CN1c2ccccc2Sc2ccccc21)N(C)C (stereo not drawn) [Phenergan ®, promethazine hydrochloride] | – | – | better for 4 patients | prefer | Percent of Patients for whom the Composition Did Not Work as Well [3]: 32%; Percent of Patients for whom the Composition worked Better [3]: 40%
4 | Cc1cccc(CN2CCN(C(c3ccccc3)c3ccc(Cl)cc3)CC2)c1 (stereo not drawn) [Meclizine ®, meclizine] | 0% | 100% | – | – | –
5 | Cc1nccn1CC1CCc2c(c3ccccc3n2C)C1=O (stereo not drawn) [Zofran ®, ondansetron hydrochloride] | – | 36% | better for 5 patients | prefer | Percent of Patients for whom the Composition Did Not Work as Well [3]: 42%; Percent of Patients for whom the Composition Did Not Work as Well (composition versus the named remedy, the two taken alone or with other remedies, listed as Zofran®, hydrochloride): at least 36%
6 | Cc1ncc(CO)c(CO)c1O.Cl [Vitamin B6, pyridoxine hydrochloride] | – | – | – | like the composition better | Patients for whom the composition definitely worked better than the remedy/remedies tried in addition (in vivo): better for 7 patients; Percent of Patients for whom the Composition Did Not Work as Well (in vivo): 11%
7 | CCN(CC)CCNC(=O)c1cc(Cl)c(N)cc1OC [Reglan ®, metochlopramide] | 60% | 0% | – | – | –
